The record followed here is patent US9131691B2, “Use of amide compounds for preventing marine biofouling” (The Hong Kong University of Science and Technology, priority 2011, dated 2015).

Holding throughout (assay type): in vivo
Series [1] is described as follows: in vivo. Conditions: Balanus amphitrite (barnacle) cyprid larvae, in vivo, B. amphitrite cyprids, 48 h, concentration where 50% of larvae dead. As for the experimental part:
(§1) They were kept in sea water at room temperature in lab under light illumination to induce the release of nauplii larvae. These newly released nauplii were reared to the cyprid stage on a diet of Chaetoceros gracilis Schutt at 28° C. for about 3 days until they developed into cyprids, which were ready to settle. The cyprids were collected using a 120 μm mesh sieve. Each sample of the exacts was dissolved in a small amount of DMSO and then transferred into filtered seawater to make up the test solution with a known concentration. About fifteen (15±3) cyprids per well were incubated in the dark for 48 h in a 24-well plate filled with 1 ml testing solutions per well. The numbers of the settled and swimming larvae were counted under a dissecting microscope. Three replicates were run for each sample. […] The experiment was performed in quadruplicate.
as §1, with “Each compound” for “Each”, “sample” for “sample of the exacts”

Series [2] deals with B. amphitrite cyprids. Briefly: whole plant or invertebrate. To be noted: for EC50: Amphibalanus amphitrite, 48 h, read-out: EC50 (larval settlement); for LC50/EC50: B. amphitrite, ratio >10 regarded as non-toxic. As for the experimental part: as §1
as §1, with “Each compound” for “Each”, “sample” for “sample of the exacts”

A short description of series [3]: inhibition of larvae settlement of B. neritina. Conditions: Bugula neritina (bryozoan) larvae, in vivo, B. neritina larvae, 24 h. As for the experimental part:
(§2) Adult B. neritina colonies were placed in a 12 L tank filled with 8 L filtered seawater under a bright artificial light for 1 h to induce the release of their photo-tactic larvae that were able to shortly attach and metamorphose. The actively swimming larvae were collected and added to the test solutions contain different concentrations of samples in 24-well plates at about fifteen (15±3) larvae per well. They were then incubated in the dark at room temperature for 24 h before counting the number of attached and unattached larvae under a dissecting microscope. […] The experiment was performed in quadruplicate.

For series [4], the system named is B. neritina larvae. Briefly: inhibition of larvae settlement of B. neritina. Conditions: for LC50/EC50: B. neritina, ratio >10 regarded as non-toxic; for EC50: Bugula neritina, read-out: EC50 (larval settlement). As for the experimental part:
as §2

Series [5] can be described thus: inhibition of larvae settlement of H. elegans. To be noted: Hydroides elegans (polychaete tubeworm) larvae, in vivo, H. elegans larvae, 48 h. As for the experimental part:
(§3) The four amide compounds were tested for their abilities to inhibit larvae settlement of the H. elegans, using an experimental model of inhibition of larvae settlement H. elegans (Zhang Y., Xiao K., Qian P. Y., et al. 2D gel-based multiplexed proteomic analysis during larval development and metamorphosis of the biofouling polychaete tubeworm Hydroides elegans. Journal of proteome research. 2010, 9(9), 4851-4860). Adults of H. elegans were collected from Yung Shue O, Hong Kong (22° 25′N, 114° 16′E). The H. elegans larvae were reared according to Qian and Pechenik (Bryan P. J., Qian P. Y., Kreider J. L.; Chia F. S. Induction of larval settlement and metamorphosis by pharmacological and conspecific associated compounds in the serpulid polychaete Hydroides elegans. Marine ecology progress series. 1997, 146: 81-90; Qiu, J. W.; Qian, P. Y. Combined effects of salinity, temperature and food on early development of the polychaete Hydroides elegans. Marine ecology progress series. 1997, 152: 79-88). Briefly, they were reared for 4 days until they reach the settlement-competent stage on a diet of chrysophyte Isochrysis galbana under an aerated condition and a 15 h light/9 h dark photoperied at 25° C. Because the attachment of H. elegans larvae requires to be induced by marine biofilm (Carpizo-Ituarte and Hadfield 1998), 24-well plates were suspended in laboratory tanks supplied with running seawater for 6 days until each well of every plate had accumulated sufficient biofilm. About fifteen (15±3) competent larvae were added to each biofilmed well of a plate containing 1.0 mL test solution containing samples at known concentrations. The 24-well plates were incubated at 28° C. for 48 h under a 15 h light/9 h dark photoperied. The percentage of larvae settlement and larvae mortality was determined by counting the settled, live individuals under a dissecting microscope. Three replicates were run for each sample. The EC50 was calculated as the concentration where 50% of the larval population was inhibited to settle as compared to the control, while LC50 was calculated as the concentration where 50% of the larval population was dead. The experiment was performed in quadruplicate. The experiment results of the inhibitory effect of the four Compounds 1-4 on larvae settlement of H. elegans were shown in FIGS. 3, 6, 9, and 12, respectively.

Series [6] has as its system H. elegans larvae. Briefly: inhibition of larvae settlement of H. elegans. To be noted: for LC50/EC50: H. elegans, ratio >10 regarded as non-toxic; for EC50: Hydroides elegans, read-out: EC50 (larval settlement). As for the experimental part:
as §3

Setting [7] is: B. amphitrite cyprids, concentration where 50% of larvae inhibited to settle vs control.
Where [8] appears, read: 48 h, H. elegans larvae, biofilmed wells, 48 h.
Setting [9] is: other: immersion in test solution.

One may read the LC50 as the concentration that kills 50% of the test population. Broadly, the EC50 is the midpoint of the concentration-response curve.

Converted amounts (≈) assume the structure as drawn. Where two headings read alike, the source gives them in different places. Some results are limits rather than exact numbers.

Turning to `O=C(/C=C/C=C/c1ccc2c(c1)OCO2)N1CCCCC1` [Compound 2, 1-[1-oxo-5-(3′,4′-methylenedioxyphenyl)-2,4-pentadienoyl]-piperidine], the 50% lethal concentration (LC50) at 48 h in series [1] was above 100 µg/mL; in series [5], above 50 µg/mL. In addition, the EC50 in series [2] (setting [7]) stood at 1.4 ± 0.6 µg/mL (≈ 4.91 µM); in series [4] (24 h, B. neritina larvae, 24 h) it was 1.6 ± 0.7 µg/mL (≈ 5.61 µM); in series [6] (setting [8]), 1.3 ± 0.8 µg/mL (≈ 4.56 µM). Also, the LC50/EC50 was above 71.4 in series [2], above 30.3 in series [4] and above 38.5 in series [6]. Further, the 50% lethal concentration (LC50) at 24 h in series [3] is above 50 µg/mL.
As to `CC(C)CNC(=O)/C=C/C=C/CCCCCC/C=C/c1ccc2c(c1)OCO2` [Compound 4, (2E,4E,12E)-N-isobutyl-13-(3′,4′-methylenedioxyphenyl)-tridecatrienamide], the LC50 at 48 h in series [1] was above 200 µg/mL; in series [5], above 100 µg/mL. In addition, the EC50 in series [2] is 16.6 ± 2.9 µg/mL (≈ 43.3 µM); in series [4] (24 h), 5.7 ± 1.5 µg/mL (≈ 14.9 µM); in series [6] (48 h) it was above 20 µg/mL. The figures for the LC50/EC50 in series [2] and in series [4] were above 12.1 and above 17.6, respectively. In addition, the median lethal concentration (LC50) at 24 h in series [3] was above 100 µg/mL. In addition, in series [6] (H. elegans larvae, biofilmed wells, 48 h), the “EC50 (larval settlement)” value was above 20.0 µg/mL.
For `O=C(CCCCCC/C=C/c1ccc2c(c1)OCO2)N1CCCCC1` [Compound 1, 1-[1-oxo-9-(3′,4′-methylenedioxyphenyl)-8E-nonenyl]-piperine], the results for the LC50 at 48 h in series [1] (setting [9]) and in series [5] (setting [9]) were above 100 µg/mL and above 50 µg/mL, respectively. The 50% effective concentration (EC50) in series [2] (setting [7]) came out at 1.1 ± 0.3 µg/mL (≈ 3.2 µM); in series [6] (setting [8]), 1 ± 0.4 µg/mL (≈ 2.91 µM). Besides, the figures for the LC50/EC50 in series [2], in series [4] and in series [6] were above 86.9, above 14.7 and above 49.5, respectively. The compound further returned an LC50 at 24 h in series [3] (setting [9]) above 10 µg/mL. Further, the “EC50 (larval settlement)” value in series [4] (B. neritina larvae, 24 h) is 0.7 ± 0.2 µg/mL (≈ 2.04 µM).
As to `O=C(/C=C/C=C/CCc1ccc2c(c1)OCO2)N1CCCCC1` [Compound 3, 1-[1-oxo-7-(3′,4′-methylenedioxyphenyl)-2E,4E-heptadienyl]-piperine], the median lethal concentration (LC50) at 48 h in series [1] (setting [9]) and in series [5] (setting [9]) was above 100 µg/mL throughout. The EC50 in series [2] (setting [7]) is 4.2 ± 1.3 µg/mL (≈ 13.4 µM); in series [4] (24 h, B. neritina larvae, 24 h) it was 8.5 ± 2.1 µg/mL (≈ 27.1 µM); in series [6] (setting [8]) it was 7.3 ± 1.6 µg/mL (≈ 23.3 µM). The LC50/EC50 in series [2] is above 24.0; in series [4], above 11.7; in series [6], above 13.7. For the same compound, the LC50 at 24 h in series [3] (setting [9]) is above 100 µg/mL.
